Laboratory results as given in patent US11040980B2, “Substituted pyrazolo[3,4-d]pyrimidines as kinase inhibitors” (PRINCIPIA BIOPHARMA INC., priority 2012, dated 2021).

Target: protein target (Homo sapiens (Human), UniProt Q06187)
Experiment: Reversibility of binding (compound in solution before and after perturbation of target, HPLC-MS/MS)
Settings: target in native (folded) state, target in excess of compound
Protocol: The following approach was developed to differentiate compounds that form irreversible covalent bond with their targets, such as non-cyano containing acrylamide compounds, from compound that form reversible covalent bond i.e., compounds and/or pharmaceutically acceptable salts of the present disclosure. […] The reactions were then treated with perturbations including both denaturation with 5 M guanidine hydrochloride and digestion with trypsin, disrupting proper folding of the target. […] The concentration of compound in solution was assessed both preceding and following perturbation using high performance liquid chromatography (HPLC) coupled to tandem mass spectrometry.

Sequence of protein target (Q06187 whole entry): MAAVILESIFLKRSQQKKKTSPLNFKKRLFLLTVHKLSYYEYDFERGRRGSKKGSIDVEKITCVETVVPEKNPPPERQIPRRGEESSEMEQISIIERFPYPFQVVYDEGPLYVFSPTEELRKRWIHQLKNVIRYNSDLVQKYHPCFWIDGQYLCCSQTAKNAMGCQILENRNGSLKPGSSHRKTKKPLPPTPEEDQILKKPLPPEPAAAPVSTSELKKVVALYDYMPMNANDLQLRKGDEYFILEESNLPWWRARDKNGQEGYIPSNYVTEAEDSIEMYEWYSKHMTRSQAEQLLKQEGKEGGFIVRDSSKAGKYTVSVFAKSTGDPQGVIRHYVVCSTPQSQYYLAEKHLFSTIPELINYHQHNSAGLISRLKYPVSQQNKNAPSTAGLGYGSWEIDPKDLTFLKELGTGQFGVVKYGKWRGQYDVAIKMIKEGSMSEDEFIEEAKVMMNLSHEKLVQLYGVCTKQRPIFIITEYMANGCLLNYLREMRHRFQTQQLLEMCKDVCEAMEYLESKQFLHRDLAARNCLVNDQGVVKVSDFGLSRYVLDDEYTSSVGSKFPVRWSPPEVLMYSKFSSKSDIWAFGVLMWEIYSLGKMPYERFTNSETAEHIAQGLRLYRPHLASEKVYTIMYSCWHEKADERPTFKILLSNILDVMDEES

Compound in solution in the native state?: no
SMILES: CN(C1COC1)C(C)(C)C=C(C#N)C(=O)N1CCC[C@H]1Cn1nc(-c2ccc(Oc3ccccc3)cc2F)c2c(N)ncnc21 [Example 10, 2-[(2S)-2-[[4-amino-3-(2-fluoro-4-phenoxy-phenyl)pyrazolo[3,4-d]pyrimidin-1-yl]methyl]pyrrolidine-1-carbonyl]-4-methyl-4-[methyl(oxetan-3-yl)amino]pent-2-enenitrile]
